We go through four molecules from patent US20240051971A1, “INTRACELLULAR ATP ENHANCER” (School Juridical Person Higashi-Nippon-Gakuen, priority 2020, published 2024).

A short description of series [1]: Test Example 2b, absorbability of solid dispersion containing Compound 14 in rats. The class given is in vivo, rats (Crl:CD (SD)). Conditions: rat, single oral, 30 mg/kg as Compound 14, fasted. The protocol: A single dose of 10 mg/kg or 30 mg/kg, as Compound 14, of the solid dispersions of Reference Example 2b and Comparative Reference Example 10b and the sample of Comparative Reference Example 11b suspended in a 1% carboxymethylcellulose aqueous solution was orally administered to fasted male rats (8 weeks old, Crl:CD (SD), Japan Charles River Laboratories). A crystalline drug substance of Compound 14 was used as a control (Comparative Reference Example 12b). A collection time was 0.5, 1, 2, 4, 8, and 24 hours after administration, and about 300 μL of blood was collected at each time point from vena caudalis (n=3). The obtained blood was centrifuged at 1500×g, 4° C. for 15 minutes to obtain a plasma. The concentration of Compound 14 in the plasma was measured by HPLC (Shiseido Company, Limited and Hitachi High-Technologies Corporation). A time to reach the highest concentration in the plasma (Tmax), the highest concentration in the plasma (Cmax) and an area under the plasma concentration-time curve (AUC) were calculated from the change in the concentration in the obtained plasma. Here, values in the table are the mean value±standard deviation of three examples.

Series [2] deals with serum uric acid level. Conditions: febuxostat 40 mg, case described in Non Patent Literature 3; first day of the administration (about 15 hours after the administration); cited from earlier work.
Another series concerns plasma uric acid level. In words: Reference Example 15, plasma uric acid in oxonic acid-induced hyperuricemic rats, 28-day repeated administration. The series is classed as in vivo, oxonic acid-induced hyperuricemic rats (Crl:CD (SD)). To be noted: oral once a day for 28 days, non-fasting; Compound 14 0.3 mg/kg; Days 1, 7, 14, 21, 28. Here is the method:
Compound 14 suspended in a 1% aqueous methylcellulose solution was orally administered to oxonic acid-induced hyperuricemic rats at a dose of 0.3 mg/kg once a day for 28 days under non-fasting conditions. As a control, a 1% aqueous methylcellulose solution was used, and as a positive control, febuxostat was used.
As rats, male Crl:CD (SD) rats (produced by Charles River Laboratories Japan, Inc.) were used. The rats were purchased at the age of 6 weeks, and the administration was started at the age of 7 weeks.
Potassium oxonate was prepared by adding and suspending 10 g of potassium oxonate (Sigma-Aldrich Corp., Lot No. 03810 HD) to 200 mL of 1% methyl cellulose (1% MC) with a mixer. […]
The collection time points were set to before administration (1 hour before) and 2 and 6 hours after administration on Days 1, 7, 14, 21, and 28, and blood was collected in an amount of about 300 μL per time point from the tail vein (n=7). […] The concentration of uric acid in the plasma was measured by HPLC (Shiseido Co., Ltd., current OSAKA SODA).
To acquire the predose value and data for grouping, a 1% aqueous methylcellulose solution was orally administered to all rats 5 days before the start of administration, and the uric acid concentration in the plasma was measured according to the above-described method such as subcutaneous administration of potassium oxonate. […]

A short description of series [3]: Distribution of administered Compound 14 in the eyeball. To be noted: Compound 14 administered to the rat. The series is classed as in vivo.
The subject of series [4] is MOVAS-1 cells having XOR activity. In words: Example 1, ATP enhancing action in hypoxic condition. The class given is cell-based. Conditions: 1% oxygen, 4 hours. The protocol:
MOVAS-1 cells having XOR activity were used for Examples. All examinations were performed at n=3 for each number of samples. The medium of MOVAS-1 cells in a confluent state (with D-MEM/low glucose/10% FBS/100 μM Oxionate) was divided into a medium for a hypoxanthine addition group and a medium for a hypoxanthine non-addition group, 50 μM hypoxanthine, and 6 μM Compound 14, 10 μM febuxostat, or 100 μM allopurinol were added to the medium of the hypoxanthine addition group, and 6 μM Compound 14, 10 μM febuxostat, or 100 μM allopurinol was added to the medium of the hypoxanthine non-addition group. For the control of each group, only 50 μM hypoxanthine was added to the hypoxanthine addition group, and nothing was added to the hypoxanthine non-addition group. Thereafter, the media were allowed to stand for 4 hours under mixed gas conditions of 1% oxygen, 5% carbon dioxide, and 94% nitrogen. After deproteinization by PCA, ATP, ADP and AMP concentrations were measured using HPLC.

In the next series the test system is eyeball. In words: Example 4, measurement of concentration of various molecules in eyeball. The series is classed as in vivo, RCS rats. Further details: unit not given here. To be noted: Day 19 after 18 days oral administration. The protocol:
(§1) Three week old RCS rats (CLEA Japan, Inc., male) were purchased and randomly divided into a control group and a Compound 14 administration group. From 3.5 weeks of age, control and Compound 14 were orally administered daily once a day for 18 days. To the control group, 1% methylcellulose (Metrose (SM-15) manufactured by Shin-Etsu Chemical Co., Ltd.) was administered, and to the Compound 14 administration group, a preparation in which a solid dispersion of Compound 14 described in “Formulation Example 1” described later was suspended in 1% methylcellulose was administered at a dose of 5 mg/100 g body weight (1 mg/100 g body weight as Compound 14) per administration. Because xanthine stones are likely to occur in rodents due to XOR inhibition, Uralyt-U combination powder (manufactured by Nippon Chemiphar Co., Ltd.) was administered to both groups in drinking water at a concentration of 1% (w/v) in order to prevent/reduce xanthine stones. On Day 19 after completion of administration for 18 days, eyeballs of both eyes were collected from both groups, and a tissue image was observed on one eyeball.
Concentrations of various molecules in one eyeball collected in Example 3 were measured. The eyeball stored at −80° C. was freeze-pulverized, a 5% perchloric acid solution in an amount of 2 times (w/w) was added, and the mixture was vortexed. The supernatant obtained by centrifugation at 15000 rpm and 4° C. for 5 minutes was neutralized with a 3 M potassium carbonate solution. The mixture was centrifuged again at 15000 rpm and 4° C. for 5 minutes, and the supernatant was equilibrated with 0.5 M sodium phosphate buffer to prepare an eyeball extraction solution. ATP, ADP, AMP, IMP, inosine, hypoxanthine, xanthine, uric acid, GTP, GDP, and GMP in the solution were measured by HPLC (HPLC: Shimadzu Corporation LC-20AD, Diode array detector: Shimadzu Corporation SPD-M20A), and the energy charge was calculated (Calculation formula: ([ATP]+½ [ADP])/([ATP]+[ADP]+[AMP])).

The next series has as its system RCS rats. In words: Example 3, suppressive action on retinal degeneration. The series is classed as in vivo. To be noted: oral once a day for 18 days, 1 mg/100 g body weight as Compound 14 (solid dispersion of Formulation Example 1); versus control, p<0.05, n=4. Here is the method: as §1
In series [5] the test system is serum uric acid level. In words: Reference Example 14, action of lowering serum uric acid level in healthy adult males. The series is classed as in vivo. To be noted: for maximum rate of decrease in a blood uric acid level: solid dispersion capsules of Formulation Example 1. The protocol:
For comparative reference, the results are shown in FIG. 9 together with the result of a case described in Non Patent Literature 3 in which febuxostat (40 mg) was used.

Another series has as its system serum. The series can be described thus: Example 5, concentration of hypoxanthine and inosine in serum. The series is classed as in vivo, RCS rats. To be noted: Day 11 after 10 days daily oral administration. The protocol:
In the same manner as in Example 3, to RCS rats, control or Compound 14 was orally administered daily for 10 days, and Uralyt-U combination powder (manufactured by Nippon Chemiphar Co., Ltd.) was administered in drinking water. On Day 11 after completion of administration for 10 days, blood was collected from both groups to prepare serum.

Series [6] relates to MOVAS-1 cells having XOR activity. In words: Example 2, ATP enhancing action in presence of uncoupler (CCCP). The series is classed as cell-based. Conditions: 6 μM Compound 14, CCCP 10 μM, 30 minutes; versus control of the CCCP addition group. The protocol:
MOVAS-1 cells having XOR activity were used for Examples. All examinations were performed at n=3 for each number of samples. The medium of MOVAS-1 cells in a confluent state (with D-MEM/low glucose/10% FBS/100 uM Oxionate) was divided into a medium for a CCCP addition group and a medium for a CCCP non-addition group, and 6 μM Compound 14 was added to the media. Nothing was added to the control of each group. Thereafter, to the CCCP addition group, CCCP was added so as to have a final concentration of 10 μM. After standing for 30 minutes, deproteinization was performed by PCA, and then ATP, ADP, and AMP concentrations were measured using HPLC.

Read-outs that look alike come from different tables or passages of the source.

As for `N#Cc1cc(-c2nc3c(O)ncnc3s2)ccc1Oc1ccccc1` [Comparative Reference Example 12b, 2-(3-Cyano-4-phenoxyphenyl)-7-hydroxythiazolo[5,4-d]pyrimidine], in series [1], the AUClast came to 1157 ± 261 ng·h/mL, the peak concentration (Cmax) turned out to be 239 ± 99 ng/mL and the Tmax is 4.7 ± 3.1 h.

As to `Cc1nc(-c2ccc(OCC(C)C)c(C#N)c2)sc1C(=O)O` [febuxostat, reference compound], the “maximum rate of decrease in a blood uric acid level” value with serum uric acid level [2] is reported as “about 35%”. For the same molecule, the “rate of change of the plasma uric acid level AUC (−1) to 6 with respect to the control group” value in the series with plasma uric acid level was “no clear increase was observed”.

Regarding `N#Cc1cc(-c2nc3c(O)ncnc3s2)ccc1Oc1ccccc1` [Compound 14, 2-(3-Cyano-4-phenoxyphenyl)-7-hydroxythiazolo[5,4-d]pyrimidine], the “distribution in the eyeball” value in series [3] is reported as “hardly distributed in the eyeball”. The “ATP enhancing action (ATP, ADP and AMP concentrations)” value in series [4] (6 μM Compound 14 versus 10 μM febuxostat or 100 μM allopurinol, with or without 50 μM hypoxanthine) was “exhibited effects at doses lower than febuxostat and allopurinol”. In addition, the “ATP enhancing action in hypoxic condition, hypoxanthine in combination” value in series [4] (50 μM hypoxanthine, 6 μM Compound 14 versus 10 μM febuxostat) was “significant difference between Compound 14 and febuxostat”. The GTP in the series with eyeball (NS p = 0.069 vs control) is given as 53.157 ± 8.352. In addition, the Hypoxanthine in the series on eyeball (NS p = 0.081 vs control) turned out to be 8.450 ± 3.244. In addition, the Xanthine in the series with eyeball (NS p = 0.095 vs control) is recorded as 1.739 ± 0.590. Moreover, the GMP in the series on eyeball (p = 0. 000 vs control) is on record as 2.458 ± 1.898. The IMP with eyeball (p = 0.002 vs control) was found to be 3.640 ± 1.122. For the same molecule, the ADP with eyeball (p = 0.004 vs control) is listed as 55.134 ± 7.253. Further, the AMP with eyeball (p = 0.010 vs control) is on record as 27.828 ± 8.547. In addition, in the series with eyeball (p = 0.027 vs control), the Uric acid is recorded as 1.344 ± 0.444. Further, the ATP in the series with eyeball (p = 0.033 vs control) is 175.809 ± 25.506. Besides, the GDP with eyeball (p = 0.036 vs control) is 8.115 ± 1.245. The Inosine with eyeball (p = 0.047 vs control) is 13.063 ± 4.690. Further, in the series on RCS rats, the “thinning of the outer nuclear layer and the cone-rod layer in the retinal tissue” value is reported as “significantly suppressed”. Besides, the “serum uric acid level over the administration period” value in the series on serum uric acid level [5] (40 mg once daily for 7 days, capsules containing micronized Compound 14) is recorded as “gradually decreased over time throughout the administration period”. The “maximum rate of decrease in a blood uric acid level” value with serum uric acid level [5] (80 mg once daily for 7 days, seventh day (about 8 hours after the administration)) is recorded as “about 30%”; in the series with serum uric acid level [5] (80 mg once daily, first day of the administration (12 hours after the administration)), “about 17%”. For the same molecule, the “increase of the concentration of hypoxanthine in the serum versus control” value in the series on serum is given as “about 7 times”. For the same molecule, the “increase of the concentration of inosine in the serum versus control” value in the series on serum was “about 38 times”. Further, in the series with serum (p = 0.023 vs control), the “Hypoxanthine, Serum (n = 4)” value is 92.020 ± 47.670. Also, in the series on serum (p = 0.026 vs control), the “Inosine, Serum (n = 4)” value came out at 9.950 ± 6.280. In addition, the “rate of change of the plasma uric acid level AUC (−1) to 6 with respect to the control group” value in the series on plasma uric acid level is on record as “increased with repeated administration”. Moreover, the total adenylate concentration entry in series [6] is given as “higher than the total adenylate concentration of the control group of the CCCP addition group”.

As to `N#Cc1cc(-c2nc3c(O)ncnc3s2)ccc1Oc1ccccc1` [Comparative Reference Example 11b, 2-(3-Cyano-4-phenoxyphenyl)-7-hydroxythiazolo[5,4-d]pyrimidine], in series [1], the AUClast turned out to be 15369 ± 7776 ng·h/mL and the Cmax turned out to be 1724 ± 65 ng/mL.
